Measurements as given in ChEMBL document CHEMBL2046285, “Synthesis of novel imbricatolic acid analogues via insertion of N-substituted piperazine at C-15/C-19 positions, displaying glucose uptake stimulation in L6 skeletal muscle cells” (2012).

system: L6; assay: Antidiabetic activity in rat L6 cells assessed as stimulation of glucose uptake at 10 uM; format: functional

Compound | Activity [%]
C=C1CC[C@@H]2[C@](C)(CCC[C@]2(C)C(=O)OC)[C@H]1CC[C@H](C)CCOC(=O)CN1CCN(c2cccc(OC)c2)CC1 | 40.9
C=C1CC[C@@H]2[C@](C)(CCC[C@]2(C)C(=O)OC)[C@H]1CC[C@H](C)CCOC(=O)CN1CCN(c2ccc(Cl)cc2)CC1 | 39.55
C=C1CC[C@@H]2[C@](C)(CCC[C@]2(C)C(=O)OC)[C@H]1CC[C@H](C)CCOC(=O)CN1CCN(C)CC1 | -3.75
C=C1CC[C@@H]2[C@](C)(CCC[C@]2(C)C(=O)OC)[C@H]1CC[C@H](C)CCOC(=O)CN1CCN(c2ccccc2)CC1 | 29.51
C=C1CC[C@@H]2[C@](C)(CCC[C@]2(C)C(=O)N2CCN(C(C)=O)CC2)[C@H]1CC[C@H](C)CCOC(C)=O | -1.96
C=C1CC[C@@H]2[C@](C)(CCC[C@]2(C)C(=O)N2CCN(C/C=C/c3ccccc3)CC2)[C@H]1CC[C@H](C)CCOC(C)=O | 16.3
C=C1CC[C@@H]2[C@](C)(CCC[C@]2(C)C(=O)N2CCN(c3cccc(OC)c3)CC2)[C@H]1CC[C@H](C)CCOC(C)=O | 54.73
C=C1CC[C@@H]2[C@](C)(CCC[C@]2(C)C(=O)OC)[C@H]1CC[C@H](C)CCOC(=O)CN1CCN(c2ccc(F)cc2)CC1 | 28.86
CN(CCOc1ccc(CC2SC(=O)NC2=O)cc1)c1ccccn1 (stereo not drawn) [ROSIGLITAZONE] | 54.5
C=C1CC[C@@H]2[C@](C)(CCC[C@]2(C)C(=O)OC)[C@H]1CC[C@H](C)CCOC(=O)CN1CCN(C(C)=O)CC1 | -5.9
C=C1CC[C@@H]2[C@](C)(CCC[C@]2(C)C(=O)O)[C@H]1CC[C@H](C)CCO [IMBRICATOLIC ACID] | 34.41
C=C1CC[C@@H]2[C@](C)(CCC[C@]2(C)C(=O)N2CCN(c3ccc(Cl)cc3)CC2)[C@H]1CC[C@H](C)CCOC(C)=O | 40.79
C=C1CC[C@@H]2[C@](C)(CCC[C@]2(C)C(=O)N2CCN(c3ccc(F)cc3)CC2)[C@H]1CC[C@H](C)CCOC(C)=O | 22.45
C=C1CC[C@@H]2[C@](C)(CCC[C@]2(C)C(=O)N2CCN(c3ccc(C)cc3)CC2)[C@H]1CC[C@H](C)CCOC(C)=O | 2.21
C=C1CC[C@@H]2[C@](C)(CCC[C@]2(C)C(=O)OC)[C@H]1CC[C@H](C)CCOC(=O)CN1CCN(C/C=C/c2ccccc2)CC1 | 18.58
C=C1CC[C@@H]2[C@](C)(CCC[C@]2(C)C(=O)N2CCN(c3ccccc3)CC2)[C@H]1CC[C@H](C)CCOC(C)=O | 24.14
C=C1CC[C@@H]2[C@](C)(CCC[C@]2(C)C(=O)N2CCN(C)CC2)[C@H]1CC[C@H](C)CCOC(C)=O | -10.16
C=C1CC[C@@H]2[C@](C)(CCC[C@]2(C)C(=O)OC)[C@H]1CC[C@H](C)CCOC(=O)CN1CCN(c2ccc(C)cc2)CC1 | 15.27
